This data set in a line: Human HepG2 cell viability assay in 384 well format. The data set is classed as toxicity, cell-based. Details: dose 125 nL, time 70.5 hour; concentration not given beside the values. To be noted: HepG2 cells, read-out: Inhibition.

In ChEMBL document CHEMBL3507680, “University of Dundee, Gates Library screen for HepG2 cell viability” one finds cytotoxicity data, which are given here for 102 compounds.

In the case of `COC(=O)NCC(=O)NC1(C)CCc2ccccc2C1` (configuration not stated), the cytotoxicity at 70.5 h is -8.98%.

As for `O=C1CN(c2ccc(C(=O)N3CCc4ccccc43)cn2)CCN1`, the cytotoxicity at 70.5 h is -6.79%.

In the case of `CN(C)c1ccc(C(=O)Nc2ccn(CCc3ccncc3)n2)cn1`, the cytotoxicity at 70.5 h stood at 0.589%.

For `CC(C)Cn1ncc(C(=O)O)c1C1CC1`, the cytotoxicity at 70.5 h is -5.02%.

`CC(CC(=O)c1ccco1)NC(=O)c1ccon1` (configuration not stated): the cytotoxicity at 70.5 h is -8.03%.

On to `CCOc1ccc(Cl)cc1CCNC(=O)Cn1ccccc1=O`, for which the cytotoxicity at 70.5 h was -3.35%.

Take `Cc1cccn2cc(CNS(=O)(=O)N3CCOCC3)nc12`: the cytotoxicity at 70.5 h was -5.24%.

With `CC(NC(=O)N1CCC1)c1ccc(S(C)(=O)=O)cc1` (configuration not stated), the cytotoxicity at 70.5 h is -5.1%.

In the case of `COC(=O)c1ccc(NC(=O)CCc2ccco2)cc1`, the cytotoxicity at 70.5 h was -8.07%.

For `Cc1nsc(N2CCN(CC(=O)N(C3CC3)C(C)C3CC3)CC2)n1` (configuration not stated), the cytotoxicity at 70.5 h worked out at 13.6%.

With `CCn1nc(C)cc1C(=O)OCC1CC(=O)N(Cc2ccccc2)C1` (configuration not stated), the cytotoxicity at 70.5 h worked out at 0.617%.

For `Cc1cnn(C2CN(CCOc3ccccc3C#N)C2)c1`, the cytotoxicity at 70.5 h was -4.34%.

Consider `CCOc1cc(Cl)ccc1CNC(=O)c1ccc(=O)n(C)c1`, for which the cytotoxicity at 70.5 h worked out at 11.4%.

On to `CCCS(=O)(=O)N1CCCN(CCCOC)CC1`, for which the cytotoxicity at 70.5 h was 8.01%.

As for `CC(C)Cn1ncc(C(=O)NS(=O)(=O)c2ccccc2)c1C1CC1`, the cytotoxicity at 70.5 h was -8.45%.

Turning to `O=C(CNC(=O)c1ccccc1Cl)Nc1nccs1`, the cytotoxicity at 70.5 h was found to be 1.89%.

Take `NC(=O)Cn1c(SCc2noc(-c3ccsc3)n2)nnc1C1CC1`: the cytotoxicity at 70.5 h is -1.96%.

As for `COCCCC(=O)NCc1cccc(NC(N)=O)c1`, the cytotoxicity at 70.5 h was -3.29%.

In the case of `COc1cc(Cl)ccc1C(=O)NCC(=O)Nc1nccs1`, the cytotoxicity at 70.5 h was -5.69%.

Regarding `CCOCCCC(=O)Nc1[nH]nc(-c2ccncc2)c1C`, the cytotoxicity at 70.5 h was -9.37%.

For `NC(=O)N1CCCC(C(=O)Nc2cccc(Cl)c2)C1` (configuration not stated), the cytotoxicity at 70.5 h is -8.06%.

Turning to `COC(=O)c1oc(CNC(C)(C)CO)cc1C`, the cytotoxicity at 70.5 h was -5.24%.

With `Cc1noc(C)c1CS(=O)(=O)CC(=O)NCCc1cccs1`, the cytotoxicity at 70.5 h amounted to 15.1%.

Take `CNS(=O)(=O)c1ccccc1N1CCN(C(=O)C(C)C)CC1`: the cytotoxicity at 70.5 h was -5.83%.

With `CN(C)C(=O)COc1ccccc1CNC1CCc2ncnn2C1` (configuration not stated), the cytotoxicity at 70.5 h was -6.71%.

With `CC(C)(C)CC(=O)NCC(=O)NS(=O)(=O)c1cccnc1`, the cytotoxicity at 70.5 h came out at 2.71%.

On to `COC(=O)N(C)CCCC(=O)Nc1[nH]nc(-c2ccncc2)c1C`, for which the cytotoxicity at 70.5 h was -2.11%.

As to `O=C(CNC(=O)c1cc(Cl)ccn1)Nc1nccs1`, the cytotoxicity at 70.5 h was -4.32%.

For the compound `COc1cccc(COCC(=O)NC(C(N)=O)c2ccccc2F)c1` (configuration not stated), the cytotoxicity at 70.5 h stood at 12%.

For `NC(=O)C(NC(=O)COCCc1ccccc1)c1ccccc1F` (configuration not stated), the cytotoxicity at 70.5 h is 5.16%.

Turning to `OCCN(Cc1cccnc1)c1ncc(Br)cn1`, the cytotoxicity at 70.5 h was -2%.

Regarding `Cc1cc(C(=O)NCC(O)CN2CCCC2=O)ccc1F` (configuration not stated), the cytotoxicity at 70.5 h is -4.58%.

On to `CCn1nc2c(cc1=O)CN(CCOc1cccc(C#N)c1)CC2`, for which the cytotoxicity at 70.5 h was -3.93%.

As to `Cc1cc(C2CCCN(C(=O)COc3cc(F)ccc3F)C2)n[nH]1` (configuration not stated), the cytotoxicity at 70.5 h came to 3.52%.

For `COC(=O)c1oc(CNC(C)(C)c2ccc3c(c2)OCO3)cc1C`, the cytotoxicity at 70.5 h stood at 19.5%.

For the compound `CN(Cc1ncnn1C)C(=O)CCn1ccc2ccccc21`, the cytotoxicity at 70.5 h was -7.59%.

For `O=C1CC2(CCSC2)C(=O)N1CCCc1ccccc1` (configuration not stated), the cytotoxicity at 70.5 h was -5.63%.

With `CCOC(=O)C(C)NC(=O)CCSc1ccc(F)cc1` (configuration not stated), the cytotoxicity at 70.5 h was -2.94%.

Consider `COCCN(C)CC1CCCN1S(=O)(=O)c1cccc(F)c1F` (configuration not stated), for which the cytotoxicity at 70.5 h was -4.32%.

For the compound `Cc1cc2n(n1)CC(CNC1CCN(Cc3ccncc3)CC1)CN2` (configuration not stated), the cytotoxicity at 70.5 h was -0.58%.

Regarding `CCc1cccc(NS(=O)(=O)c2cc(C)c(C(=O)O)s2)c1`, the cytotoxicity at 70.5 h worked out at 0.535%.

On to `Cc1cc2n(n1)CC(CNC1CCN(Cc3ccccn3)CC1)CN2` (configuration not stated), for which the cytotoxicity at 70.5 h was -6.35%.

Take `N#Cc1cccc(CNC(=O)NC2CCN(CC(F)F)CC2)c1`: the cytotoxicity at 70.5 h is 17.7%.

For `CC(C)c1noc(CCC(=O)NC(C)c2nnc3n2CCC3)n1` (configuration not stated), the cytotoxicity at 70.5 h is 0.884%.

`CC(C)c1noc(CCCC(=O)NC(C)c2nnc3n2CCC3)n1` (configuration not stated): the cytotoxicity at 70.5 h is -4.68%.

Turning to `CC(C)NC(=O)Nc1ccccc1CN1CCOCC1`, the cytotoxicity at 70.5 h is -5.87%.

Turning to `COc1ccnc(N2CCN(C(=O)c3cnc(C4CC4)s3)CC2)n1`, the cytotoxicity at 70.5 h was -5.21%.

`CCS(=O)(=O)N1CCC(NCC2CNc3cc(C)nn3C2)CC1` (configuration not stated): the cytotoxicity at 70.5 h turned out to be 19.2%.

For `Cc1cc(S(=O)(=O)Nc2cccc(OC(F)F)c2)sc1C(=O)O`, the cytotoxicity at 70.5 h was determined as 16.4%.

Regarding `CC(C)COCC(C)NC(=O)NCc1cccc(-n2cncn2)c1` (configuration not stated), the cytotoxicity at 70.5 h is -2.93%.

Consider `Cc1ccccc1C(=O)NC1CCN(c2cnn(C)c2)C1=O` (configuration not stated), for which the cytotoxicity at 70.5 h was -4.47%.

In the case of `Cc1nc(CN2CCC(CNC(=O)NCCC3CCC3)CC2)oc1C`, the cytotoxicity at 70.5 h was determined as 0.076%.

On to `Cc1c(CNC(=O)NCc2cccc(-n3cncn3)c2)cnn1C`, for which the cytotoxicity at 70.5 h was -5.57%.

As for `CCC(CC)c1cc(CNC(=O)N2CCCC(c3ncc[nH]3)C2)on1` (configuration not stated), the cytotoxicity at 70.5 h is 0.2%.

For `CCN1CCN(c2ccc(F)cc2C(C)NCc2nc(C)no2)CC1` (configuration not stated), the cytotoxicity at 70.5 h is -0.791%.

Take `CCC(CC)c1cc(CNC(=O)N2CCC[C@@H]2CO)on1`: the cytotoxicity at 70.5 h was 15.7%.

In the case of `CCC(CC)c1cc(CNC(=O)N2CCC(CO)CC2)on1`, the cytotoxicity at 70.5 h is -4.82%.

On to `CC(C)C(O)C(C)(C)CNC(=O)NCc1ccc(-n2cncn2)cc1` (configuration not stated), for which the cytotoxicity at 70.5 h was -1.82%.

`COc1c(CNC2CCOc3ccccc32)c(C)nn1C` (configuration not stated): the cytotoxicity at 70.5 h was -4.19%.

With `c1cc(CNCc2ccnc(N3CCCCC3)c2)c2c(c1)OCCCO2`, the cytotoxicity at 70.5 h was -10.6%.

Regarding `CCN(CC(=O)NC(C)C)S(=O)(=O)N1CCCC(C)C1` (configuration not stated), the cytotoxicity at 70.5 h is -1.39%.

Consider `O=C1CC2(CCCC2)C(=O)N1CC(O)COCc1ccccc1F` (configuration not stated), for which the cytotoxicity at 70.5 h was 12.5%.

Regarding `Cc1ccc(-c2ccsc2C(=O)NC2CCS(=O)(=O)C2)cc1` (configuration not stated), the cytotoxicity at 70.5 h is -3.7%.

As to `O=C(NC1CCS(=O)(=O)C1)c1ccc(-c2ccc(F)cc2)s1` (configuration not stated), the cytotoxicity at 70.5 h was -0.198%.

Consider `COc1cc(C(=O)O)ccc1OCC(=O)NC(C)c1ccc(F)cc1` (configuration not stated), for which the cytotoxicity at 70.5 h was -5.08%.

Turning to `COc1ccc(C(=O)O)c(OCC(=O)NC(C)c2ccccc2)c1` (configuration not stated), the cytotoxicity at 70.5 h was -5.77%.

With `COc1c(CNC2CCOc3c(F)cccc32)c(C)nn1C` (configuration not stated), the cytotoxicity at 70.5 h was -3.45%.

`Cc1cnn(CC2CN(CCS(C)(=O)=O)CCO2)c1` (configuration not stated): the cytotoxicity at 70.5 h is -4.67%.

`COC(=O)N1CCC(NC(=O)Cn2cc(C)c3ccccc32)CC1`: the cytotoxicity at 70.5 h is -7.09%.

For the compound `Cc1cc(CNC(=O)[C@H]2CCCCN2C(=O)OC(C)(C)C)on1`, the cytotoxicity at 70.5 h was -1.11%.

Regarding `COc1ccc(CNC(=O)CNc2cc3c(cc2Cl)OCCO3)cc1`, the cytotoxicity at 70.5 h is -0.455%.

On to `CSCC(C)(O)CNC(=O)c1cc(F)ccc1Br` (configuration not stated), for which the cytotoxicity at 70.5 h came to 1.71%.

In the case of `COCCN1CCC(NC(=O)Cn2cc(C)c3ccccc32)CC1`, the cytotoxicity at 70.5 h was 12.3%.

Regarding `Cc1cc(CNC(=O)C2CCCN2C(=O)OC(C)(C)C)no1` (configuration not stated), the cytotoxicity at 70.5 h is -0.379%.

In the case of `c1ccc2c(c1)OCCCC2NCc1nnc2n1CCCCC2` (configuration not stated), the cytotoxicity at 70.5 h was -2.04%.

For `Cc1nn(C)c(Oc2ccccc2)c1CNC1CCOc2ccccc21` (configuration not stated), the cytotoxicity at 70.5 h was -1.6%.

As for `Cc1cc(CN(Cc2ccccc2)CC(O)c2cccs2)on1` (configuration not stated), the cytotoxicity at 70.5 h worked out at 8.6%.

As for `OC(CN(Cc1ccccc1)Cc1ccon1)c1cccs1` (configuration not stated), the cytotoxicity at 70.5 h is -5.21%.

Take `CN(C)c1cc(CNCc2cccc3c2OCCO3)ccn1`: the cytotoxicity at 70.5 h was -4.63%.

`CCN(CC)S(=O)(=O)N1CCCN(CC(=O)NC(C)C)CC1`: the cytotoxicity at 70.5 h worked out at 6.63%.

As for `c1cc(CNCc2ccnc(N3CCCC3)c2)c2c(c1)OCCCO2`, the cytotoxicity at 70.5 h is -10%.

In the case of `Cc1oncc1C(=O)NCC(c1ccccc1Cl)N1CCOCC1` (configuration not stated), the cytotoxicity at 70.5 h was -3.09%.

In the case of `Cc1cnc(C(=O)NCC(c2ccc(C)o2)N2CCOCC2)cn1` (configuration not stated), the cytotoxicity at 70.5 h came out at 10.4%.

For `CN1CCN(Cc2ccccc2CNC(=O)c2cc(Cl)ccc2F)CC1`, the cytotoxicity at 70.5 h is -5.92%.

Take `Cc1ccoc1C(=O)NCC(c1ccccc1Cl)N1CCOCC1` (configuration not stated): the cytotoxicity at 70.5 h is -1.62%.

Consider `CC(C)CN1CCN(C(=O)c2cccnc2-n2cncn2)CC1`, for which the cytotoxicity at 70.5 h is 11.2%.

As for `CC(NC(=O)Cc1ccccc1F)C(=O)N1CCS(=O)(=O)CC1` (configuration not stated), the cytotoxicity at 70.5 h was -3.35%.

Regarding `CC(C)(C)NC(=O)NC(=O)COc1nc(C(C)(C)C)no1`, the cytotoxicity at 70.5 h is 13%.

With `CN(Cc1ccc(N(C)C)cc1)C(=O)CS(=O)(=O)c1ccc(Cl)cc1`, the cytotoxicity at 70.5 h came out at 17%.

In the case of `CC(C)(C)N1CCN(C(=O)c2cccnc2-n2cncn2)CC1`, the cytotoxicity at 70.5 h is 0.2%.

Regarding `N#Cc1cccnc1NCCNC(=O)N1CCN2CCCCC2C1` (configuration not stated), the cytotoxicity at 70.5 h was found to be 13.6%.

As to `Cc1ccc(CC(=O)NC(C)C(=O)N2CCS(=O)(=O)CC2)s1` (configuration not stated), the cytotoxicity at 70.5 h was -1.34%.

As to `Cc1cnn(CC2CCCN2CC(=O)N(C)Cc2ccco2)c1` (configuration not stated), the cytotoxicity at 70.5 h was -4.69%.

`Cn1cc(CCCNS(=O)(=O)N2CCCC2c2ccco2)cn1` (configuration not stated): the cytotoxicity at 70.5 h is -2.37%.

On to `CS(=O)(=O)Cc1ccc(Cl)c(NCc2noc(C3CC3)n2)c1`, for which the cytotoxicity at 70.5 h amounted to 0.67%.

`O=C(NC1(c2nccs2)CCCC1)c1cc(C2CC2)[nH]n1`: the cytotoxicity at 70.5 h was -2.38%.

For the compound `O=C(NC1(c2nccs2)CCCC1)c1[nH]nc(C2CC2)c1Cl`, the cytotoxicity at 70.5 h stood at 3%.

Turning to `Cn1ccc(NC2CCN(C3CC3)C2=O)n1` (configuration not stated), the cytotoxicity at 70.5 h stood at 11.7%.

Take `COCC(C)(C#N)NC(=O)COc1ccccc1Br` (configuration not stated): the cytotoxicity at 70.5 h was -0.405%.

For `CCC(NCc1cc[nH]n1)c1nc(C(F)(F)F)cs1` (configuration not stated), the cytotoxicity at 70.5 h was -4.23%.

As to `CCN(CC1CCCO1)S(=O)(=O)c1cc(NC(C)=O)ccc1C` (configuration not stated), the cytotoxicity at 70.5 h is 6.44%.

In the case of `COc1c(CNC2CCCOc3ccc(F)cc32)c(C)nn1C` (configuration not stated), the cytotoxicity at 70.5 h is -2.26%.
